Measured values from PubChem BioAssay AID1259407 (Chemical Carcinogenesis Research Information System (CCRIS), 2018).
Active and inactive are the calls of the source. How the calls were made is not given here.

Tested on: CCRIS mutagenicity, Ames/micronucleus/aberration tests
Experiment: CCRIS mutagenicity studies

Measured: mutagenic call

CC(C)O
inactive: Test System: AMES SALMONELLA TYPHIMURIUM, Strain/Indicator: TA97, Metabolic Activation: HAMSTER, LIVER, S-9, AROCLOR 1254 (10 OR 30%), Method: PREINCUBATION inactive; negative | Test System: AMES SALMONELLA TYPHIMURIUM, Strain/Indicator: TA97, Metabolic Activation: NONE, Method: PREINCUBATION inactive; negative | Test System: AMES SALMONELLA TYPHIMURIUM, Strain/Indicator: TA97, Metabolic Activation: RAT, LIVER, S-9, AROCLOR 1254 (10 OR 30%), Method: PREINCUBATION inactive; negative | Test System: AMES SALMONELLA TYPHIMURIUM, Strain/Indicator: TA98, Metabolic Activation: HAMSTER, LIVER, S-9, AROCLOR 1254 (10 OR 30%), Method: PREINCUBATION inactive; negative | Test System: AMES SALMONELLA TYPHIMURIUM, Strain/Indicator: TA98, Metabolic Activation: NONE, Method: PREINCUBATION inactive; negative | Test System: AMES SALMONELLA TYPHIMURIUM, Strain/Indicator: TA98, Metabolic Activation: RAT, LIVER, S-9, AROCLOR 1254 (10 OR 30%), Method: PREINCUBATION inactive; negative | Test System: AMES SALMONELLA TYPHIMURIUM, Strain/Indicator: TA98, Metabolic Activation: RAT, LIVER, S-9, KC 500, Method: PREINCUBATION inactive; negative | Test System: AMES SALMONELLA TYPHIMURIUM, Strain/Indicator: TA98, Metabolic Activation: RAT, LIVER, S-9, PHENOBARBITAL AND BETA-NAPHTHOFLAVONE, Method: PREINCUBATION inactive; negative | Test System: AMES SALMONELLA TYPHIMURIUM, Strain/Indicator: TA100, Metabolic Activation: HAMSTER, LIVER, S-9, AROCLOR 1254 (10 OR 30%), Method: PREINCUBATION inactive; negative | Test System: AMES SALMONELLA TYPHIMURIUM, Strain/Indicator: TA100, Metabolic Activation: NONE, Method: PREINCUBATION inactive; negative | Test System: AMES SALMONELLA TYPHIMURIUM, Strain/Indicator: TA100, Metabolic Activation: RAT, LIVER, S-9, AROCLOR 1254 (10 OR 30%), Method: PREINCUBATION inactive; negative | Test System: AMES SALMONELLA TYPHIMURIUM, Strain/Indicator: TA100, Metabolic Activation: RAT, LIVER, S-9, KC 500, Method: PREINCUBATION inactive; negative | Test System: AMES SALMONELLA TYPHIMURIUM, Strain/Indicator: TA100, Metabolic Activation: RAT, LIVER, S-9, PHENOBARBITAL AND BETA-NAPHTHOFLAVONE, Method: PREINCUBATION inactive; negative | Test System: AMES SALMONELLA TYPHIMURIUM, Strain/Indicator: TA102, Metabolic Activation: NONE, Method: PREINCUBATION inactive; negative | Test System: AMES SALMONELLA TYPHIMURIUM, Strain/Indicator: TA102, Metabolic Activation: RAT, LIVER, S-9, PHENOBARBITAL AND BETA-NAPHTHOFLAVONE, Method: PREINCUBATION inactive; negative | Test System: AMES SALMONELLA TYPHIMURIUM, Strain/Indicator: TA104, Metabolic Activation: NONE, Method: PREINCUBATION inactive; negative | Test System: AMES SALMONELLA TYPHIMURIUM, Strain/Indicator: TA104, Metabolic Activation: RAT, LIVER, S-9, PHENOBARBITAL AND BETA-NAPHTHOFLAVONE, Method: PREINCUBATION inactive; negative | Test System: AMES SALMONELLA TYPHIMURIUM, Strain/Indicator: TA1535, Metabolic Activation: HAMSTER, LIVER, S-9, AROCLOR 1254 (10 OR 30%), Method: PREINCUBATION inactive; negative | Test System: AMES SALMONELLA TYPHIMURIUM, Strain/Indicator: TA1535, Metabolic Activation: NONE, Method: PREINCUBATION inactive; negative | Test System: AMES SALMONELLA TYPHIMURIUM, Strain/Indicator: TA1535, Metabolic Activation: RAT, LIVER, S-9, AROCLOR 1254 (10 OR 30%), Method: PREINCUBATION inactive; negative | Test System: AMES SALMONELLA TYPHIMURIUM, Strain/Indicator: TA1535, Metabolic Activation: RAT, LIVER, S-9, KC 500, Method: PREINCUBATION inactive; negative | Test System: AMES SALMONELLA TYPHIMURIUM, Strain/Indicator: TA1535, Metabolic Activation: RAT, LIVER, S-9, PHENOBARBITAL AND BETA-NAPHTHOFLAVONE, Method: PREINCUBATION inactive; negative | Test System: AMES SALMONELLA TYPHIMURIUM, Strain/Indicator: TA1537, Metabolic Activation: HAMSTER, LIVER, S-9, AROCLOR 1254 (30%), Method: PREINCUBATION inactive; negative | Test System: AMES SALMONELLA TYPHIMURIUM, Strain/Indicator: TA1537, Metabolic Activation: NONE, Method: PREINCUBATION inactive; negative | Test System: AMES SALMONELLA TYPHIMURIUM, Strain/Indicator: TA1537, Metabolic Activation: RAT, LIVER, S-9, AROCLOR 1254 (30%), Method: PREINCUBATION inactive; negative | Test System: AMES SALMONELLA TYPHIMURIUM, Strain/Indicator: TA1537, Metabolic Activation: RAT, LIVER, S-9, KC 500, Method: PREINCUBATION inactive; negative | Test System: AMES SALMONELLA TYPHIMURIUM, Strain/Indicator: TA1537, Metabolic Activation: RAT, LIVER, S-9, PHENOBARBITAL AND BETA-NAPHTHOFLAVONE, Method: PREINCUBATION inactive; negative | Test System: AMES SALMONELLA TYPHIMURIUM, Strain/Indicator: TA1538, Metabolic Activation: NONE, Method: PREINCUBATION inactive; negative | Test System: AMES SALMONELLA TYPHIMURIUM, Strain/Indicator: TA1538, Metabolic Activation: RAT, LIVER, S-9, KC 500, Method: PREINCUBATION inactive; negative | Test System: CHINESE HAMSTER OVARY, Strain/Indicator: CHO-K1-BH4 (HGPRT), Metabolic Activation: NONE inactive; negative | Test System: CHINESE HAMSTER OVARY, Strain/Indicator: CHO-K1-BH4 (HGPRT), Metabolic Activation: RAT, LIVER, S-9, AROCLOR 1254 inactive; negative | Test System: E. COLI, Strain/Indicator: WP2UVRA/PKM101, Metabolic Activation: NONE, Method: PREINCUBATION inactive; negative | Test System: E. COLI, Strain/Indicator: WP2UVRA/PKM101, Metabolic Activation: RAT, LIVER, S-9, PHENOBARBITAL AND BETA-NAPHTHOFLAVONE, Method: PREINCUBATION inactive; negative | Test System: E. COLI, Strain/Indicator: WP2 UVRA, Metabolic Activation: NONE, Method: PREINCUBATION inactive; negative | Test System: E. COLI, Strain/Indicator: WP2UVRA, Metabolic Activation: NONE, Method: PREINCUBATION inactive; negative | Test System: E. COLI, Strain/Indicator: WP2 UVRA, Metabolic Activation: RAT, LIVER, S-9, KC 500, Method: PREINCUBATION inactive; negative | Test System: E. COLI, Strain/Indicator: WP2UVRA, Metabolic Activation: RAT, LIVER, S-9, PHENOBARBITAL AND BETA-NAPHTHOFLAVONE, Method: PREINCUBATION inactive; negative

C=CCSS(=O)CC=C (centres undefined)
inactive: End Point: IN VITRO CHROMOSOMAL ABERRATIONS, Test System: HUMAN PERIPHERAL BLOOD LYMPHOCYTES, Metabolic Activation: NONE inactive; negative | End Point: IN VITRO CHROMOSOMAL ABERRATIONS, Test System: HUMAN PERIPHERAL BLOOD LYMPHOCYTES, Metabolic Activation: RAT, LIVER, S-9, PHENOBARBITONE inactive; negative
